Measurements published in PubChem BioAssay AID1745844 (Carcinogenic Potency Database (CPDB), 2022).
Activity calls are given as the source filed them. How the calls were made is not given here.

Tested on: rodent lifetime carcinogenesis bioassay, tumor incidence TD50
Test: carcinogenic potency in animals, long-term in vivo studies, CPDB compilation (AID 1745844)

CSCCC(N)C(=O)O (configuration not stated)
TD50 (mouse, strain C3H/HeN, males, in feed, site: liver, lesion: hepatocellular adenoma, dosed 52 weeks, study length 52 weeks): 4160 mg/kg/day
TD50 (mouse, strain C3H/HeN, males, in feed, site: liver, lesion: hepatocellular carcinoma, dosed 52 weeks, study length 52 weeks): 4470 mg/kg/day
TD50 (mouse, strain C3H/HeN, males, in feed, site: liver, lesion: several types, types named in the paper, dosed 52 weeks, study length 52 weeks): 2000 mg/kg/day
carcinogen call (rat, strain Fischer 344, males, in feed, site: liver, lesion: neoplastic nodule, dosed 72 weeks, study length 103 weeks): negative (inactive)

CCOC(=O)C(C)(C)Oc1ccc(Cl)cc1
TD50 (mouse, strain AP Alderly Park, females, in feed, site: liver, lesion: hepatocellular adenoma, dosed 78 weeks, study length 78 weeks): 1480 mg/kg/day (inactive)
TD50 (mouse, strain AP Alderly Park, males, in feed, site: liver, lesion: hepatocellular adenoma, dosed 78 weeks, study length 78 weeks): 313 mg/kg/day (inactive)
TD50 (mouse, strain AP Alderly Park, males, in feed, site: liver, lesion: hepatocellular carcinoma, dosed 78 weeks, study length 78 weeks): 9710 mg/kg/day (inactive)
TD50 (mouse, strain C57BL/10J, females, in feed, site: liver, lesion: hepatocellular adenoma, dosed 78 weeks, study length 78 weeks): 14700 mg/kg/day (inactive)
carcinogen call (mouse, strain C57BL/10J, females, in feed, site: lung, lesion: one or several types, types not named, dosed 78 weeks, study length 78 weeks): negative (inactive)
TD50 (mouse, strain C57BL/10J, males, in feed, site: liver, lesion: hepatocellular adenoma, dosed 78 weeks, study length 78 weeks): 3640 mg/kg/day (inactive)
carcinogen call (mouse, strain C57BL/10J, males, in feed, site: lung, lesion: one or several types, types not named, dosed 78 weeks, study length 78 weeks): negative (inactive)
TD50 (rat, strain Fischer 344, males, in feed, site: liver, lesion: hepatocellular carcinoma, dosed 121 weeks, study length 121 weeks): 169 mg/kg/day
TD50 (rat, strain Fischer 344, males, in feed, site: pancreas, lesion: acinar-cell carcinoma, dosed 121 weeks, study length 121 weeks): 1300 mg/kg/day

CCCN(CCC)N=O
TD50 (monkey, strain Rhesus [Macaca mulatta], both sexes, i.p., site: any site (literature study), lesion: malignant tumor, dosed 133 weeks, study length 133 weeks): 0.0121 mg/kg/day
TD50 (monkey, strain Rhesus [Macaca mulatta], both sexes, i.p., site: liver, lesion: hepatocellular carcinoma, dosed 133 weeks, study length 133 weeks): 0.0121 mg/kg/day
TD50 (rat, strain Fischer 344, females, by gavage, site: esophagus, lesion: several types, types named in the paper, dosed 30 weeks, study length 60 weeks): 0.505 mg/kg/day
TD50 (rat, strain Fischer 344, females, by gavage, site: liver, lesion: hepatocellular carcinoma, dosed 30 weeks, study length 60 weeks): 0.186 mg/kg/day
TD50 (rat, strain Fischer 344, females, by gavage, site: nasal cavity, lesion: carcinoma, dosed 30 weeks, study length 60 weeks): 0.186 mg/kg/day

O=C1NCCN1
TD50 (mouse, strain B6AKF1, females, oral dosing, site: any site (literature study), lesion: several types, types named in the paper, dosed 76 weeks, study length 76 weeks): 473 mg/kg/day (inactive)
carcinogen call (mouse, strain B6AKF1, females, oral dosing, site: liver, lesion: hepatoma, dosed 76 weeks, study length 76 weeks): negative (inactive)
TD50 (mouse, strain B6AKF1, females, oral dosing, site: lung, lesion: adenoma, dosed 76 weeks, study length 76 weeks): 505 mg/kg/day (inactive)
carcinogen call (mouse, strain B6AKF1, males, oral dosing, site: any site (literature study), lesion: several types, types named in the paper, dosed 76 weeks, study length 76 weeks): negative (inactive)
TD50 (mouse, strain B6AKF1, males, oral dosing, site: liver, lesion: hepatoma, dosed 76 weeks, study length 76 weeks): 500 mg/kg/day (inactive)
carcinogen call (mouse, strain B6AKF1, males, oral dosing, site: lung, lesion: adenoma, dosed 76 weeks, study length 76 weeks): negative (inactive)
carcinogen call (mouse, strain B6C3F1, females, oral dosing, site: any site (literature study), lesion: one or several types, types not named, dosed 76 weeks, study length 76 weeks): negative (inactive)
carcinogen call (mouse, strain B6C3F1, females, oral dosing, site: liver, lesion: hepatoma, dosed 76 weeks, study length 76 weeks): negative (inactive)
carcinogen call (mouse, strain B6C3F1, females, oral dosing, site: lung, lesion: several types, types named in the paper, dosed 76 weeks, study length 76 weeks): negative (inactive)
TD50 (mouse, strain B6C3F1, males, oral dosing, site: any site (literature study), lesion: several types, types named in the paper, dosed 76 weeks, study length 76 weeks): 87.1 mg/kg/day (inactive)
TD50 (mouse, strain B6C3F1, males, oral dosing, site: liver, lesion: hepatoma, dosed 76 weeks, study length 76 weeks): 242 mg/kg/day (inactive)
TD50 (mouse, strain B6C3F1, males, oral dosing, site: lung, lesion: adenoma, dosed 76 weeks, study length 76 weeks): 242 mg/kg/day (inactive)

C=CCNN
TD50 (mouse, strain Swiss albino, females, in drinking water, site: blood vessels, lesion: angioma, dosed 105 weeks, study length 105 weeks): 163 mg/kg/day
TD50 (mouse, strain Swiss albino, females, in drinking water, site: blood vessels, lesion: several types, types named in the paper, dosed 105 weeks, study length 105 weeks): 119 mg/kg/day
TD50 (mouse, strain Swiss albino, females, in drinking water, site: liver, lesion: several types, types named in the paper, dosed 105 weeks, study length 105 weeks): 234 mg/kg/day
TD50 (mouse, strain Swiss albino, females, in drinking water, site: lung, lesion: adenocarcinoma, dosed 105 weeks, study length 105 weeks): 96 mg/kg/day
TD50 (mouse, strain Swiss albino, females, in drinking water, site: lung, lesion: adenoma, dosed 105 weeks, study length 105 weeks): 46.1 mg/kg/day
TD50 (mouse, strain Swiss albino, females, in drinking water, site: lung, lesion: several types, types named in the paper, dosed 105 weeks, study length 105 weeks): 38.4 mg/kg/day
TD50 (mouse, strain Swiss albino, males, in drinking water, site: liver, lesion: hepatoma, dosed 93 weeks, study length 93 weeks): 274 mg/kg/day (inactive)
TD50 (mouse, strain Swiss albino, males, in drinking water, site: lung, lesion: adenoma, dosed 93 weeks, study length 93 weeks): 28.9 mg/kg/day
TD50 (mouse, strain Swiss albino, males, in drinking water, site: lung, lesion: several types, types named in the paper, dosed 93 weeks, study length 93 weeks): 30.9 mg/kg/day

CC(=O)Nc1nc(NC(C)=O)nc(-c2ccc([N+](=O)[O-])o2)n1
TD50 (rat, strain Sprague-Dawley, females, in feed, site: any site (literature study), lesion: several types, types named in the paper, dosed 46 weeks, study length 66 weeks): 12.8 mg/kg/day
TD50 (rat, strain Sprague-Dawley, females, in feed, site: mammary gland, lesion: adenocarcinoma, dosed 46 weeks, study length 66 weeks): 29 mg/kg/day
TD50 (rat, strain Sprague-Dawley, females, in feed, site: mammary gland, lesion: several types, types named in the paper, dosed 46 weeks, study length 66 weeks): 14.1 mg/kg/day

O=NN1CCOCC1
TD50 (hamster, strain Syrian Golden, females, in drinking water, site: any site (literature study), lesion: several types, types named in the paper, dosed 104 weeks, study length 104 weeks): 1.48 mg/kg/day
TD50 (hamster, strain Syrian Golden, females, in drinking water, site: larynx, lesion: several types, types named in the paper, dosed 104 weeks, study length 104 weeks): 15.4 mg/kg/day
TD50 (hamster, strain Syrian Golden, females, in drinking water, site: liver, lesion: several types, types named in the paper, dosed 104 weeks, study length 104 weeks): 51.6 mg/kg/day
TD50 (hamster, strain Syrian Golden, females, in drinking water, site: respiratory system, lesion: several types, types named in the paper, dosed 104 weeks, study length 104 weeks): 1.35 mg/kg/day
TD50 (hamster, strain Syrian Golden, females, in drinking water, site: trachea, lesion: mixed-cell mucoepidermoid papilloma, dosed 104 weeks, study length 104 weeks): 11.3 mg/kg/day
TD50 (hamster, strain Syrian Golden, males, in drinking water, site: any site (literature study), lesion: several types, types named in the paper, dosed 104 weeks, study length 104 weeks): 5.56 mg/kg/day
TD50 (hamster, strain Syrian Golden, males, in drinking water, site: larynx, lesion: several types, types named in the paper, dosed 104 weeks, study length 104 weeks): 11.5 mg/kg/day
TD50 (hamster, strain Syrian Golden, males, in drinking water, site: liver, lesion: several types, types named in the paper, dosed 104 weeks, study length 104 weeks): 9.14 mg/kg/day
TD50 (hamster, strain Syrian Golden, males, in drinking water, site: respiratory system, lesion: several types, types named in the paper, dosed 104 weeks, study length 104 weeks): 5.98 mg/kg/day
TD50 (hamster, strain Syrian Golden, males, in drinking water, site: trachea, lesion: mixed-cell mucoepidermoid papilloma, dosed 104 weeks, study length 104 weeks): 7.98 mg/kg/day
TD50 (rat, strain Fischer 344, females, in drinking water, site: adrenal medulla, lesion: pheochromocytoma, dosed 45 weeks, study length 126 weeks): 0.325 mg/kg/day
TD50 (rat, strain Fischer 344, females, in drinking water, site: adrenal medulla, lesion: pheochromocytoma, dosed 100 weeks, study length 126 weeks): 1.07 mg/kg/day
TD50 (rat, strain Fischer 344, females, in drinking water, site: esophagus, lesion: several types, types named in the paper, dosed 45 weeks, study length 126 weeks): 1.97 mg/kg/day
TD50 (rat, strain Fischer 344, females, in drinking water, site: esophagus, lesion: squamous-cell papilloma, dosed 45 weeks, study length 126 weeks): 2.53 mg/kg/day
TD50 (rat, strain Fischer 344, females, in drinking water, site: liver, lesion: hemangiosarcoma, dosed 45 weeks, study length 126 weeks): 0.666 mg/kg/day
TD50 (rat, strain Fischer 344, females, in drinking water, site: liver, lesion: hemangiosarcoma, dosed 50 weeks, study length 73 weeks): 0.348 mg/kg/day
TD50 (rat, strain Fischer 344, females, in drinking water, site: liver, lesion: hemangiosarcoma, dosed 100 weeks, study length 126 weeks): 0.63 mg/kg/day
TD50 (rat, strain Fischer 344, females, in drinking water, site: liver, lesion: hepatocellular carcinoma, dosed 45 weeks, study length 126 weeks): 0.564 mg/kg/day
TD50 (rat, strain Fischer 344, females, in drinking water, site: liver, lesion: hepatocellular carcinoma, dosed 50 weeks, study length 73 weeks): 0.0805 mg/kg/day
TD50 (rat, strain Fischer 344, females, in drinking water, site: liver, lesion: hepatocellular carcinoma, dosed 100 weeks, study length 126 weeks): 0.431 mg/kg/day
TD50 (rat, strain Fischer 344, females, in drinking water, site: liver, lesion: neoplastic nodule, dosed 45 weeks, study length 126 weeks): 1.28 mg/kg/day
TD50 (rat, strain Fischer 344, females, in drinking water, site: liver, lesion: neoplastic nodule, dosed 100 weeks, study length 126 weeks): 0.239 mg/kg/day
TD50 (rat, strain Fischer 344, females, in drinking water, site: liver, lesion: several types, types named in the paper, dosed 45 weeks, study length 126 weeks): 0.14 mg/kg/day
carcinogen call (rat, strain Fischer 344, females, in drinking water, site: liver, lesion: several types, types named in the paper, dosed 50 weeks, study length 73 weeks): positive
TD50 (rat, strain Fischer 344, females, in drinking water, site: liver, lesion: several types, types named in the paper, dosed 100 weeks, study length 126 weeks): 0.127 mg/kg/day
TD50 (rat, strain Fischer 344, females, in drinking water, site: thyroid gland, lesion: c-cell carcinoma, dosed 45 weeks, study length 126 weeks): 0.363 mg/kg/day
TD50 (rat, strain Fischer 344, females, in drinking water, site: thyroid gland, lesion: follicular-cell adenoma, dosed 100 weeks, study length 126 weeks): 0.581 mg/kg/day
TD50 (rat, strain Fischer 344, females, in drinking water, site: tongue, lesion: several types, types named in the paper, dosed 45 weeks, study length 126 weeks): 6.54 mg/kg/day
TD50 (rat, strain Fischer 344, females, in drinking water, site: tongue, lesion: squamous-cell papilloma, dosed 45 weeks, study length 126 weeks): 50.2 mg/kg/day
TD50 (rat, strain Fischer 344, females, in drinking water, site: tongue, lesion: squamous-cell papilloma, dosed 100 weeks, study length 126 weeks): 3.49 mg/kg/day
